What was measured:
M2 mAChR WT = molecular target: T1, M2 mAChR WT (Homo sapiens, UniProt P08172); experiment: [3H]-NMS radioligand dissociation binding, M2 mAChR WT
T1 construct: expressed in transfected cells
T1 sequence (P08172 1-466): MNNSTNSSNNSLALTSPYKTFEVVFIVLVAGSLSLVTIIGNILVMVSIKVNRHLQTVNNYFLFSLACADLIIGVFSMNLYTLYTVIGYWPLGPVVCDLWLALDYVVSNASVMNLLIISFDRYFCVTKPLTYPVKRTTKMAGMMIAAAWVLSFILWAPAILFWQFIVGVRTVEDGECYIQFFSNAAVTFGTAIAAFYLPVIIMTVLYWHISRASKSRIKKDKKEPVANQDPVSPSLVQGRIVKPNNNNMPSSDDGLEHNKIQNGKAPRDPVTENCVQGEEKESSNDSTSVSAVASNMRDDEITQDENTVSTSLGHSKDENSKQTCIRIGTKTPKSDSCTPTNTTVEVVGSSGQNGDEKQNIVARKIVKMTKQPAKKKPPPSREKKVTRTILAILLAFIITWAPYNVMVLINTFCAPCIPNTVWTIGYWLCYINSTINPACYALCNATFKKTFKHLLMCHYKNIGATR
Method: (§1) Flp-In Chinese hamster ovary (CHO) (Thermo Fisher Scientific) cells stably expressing mAChR WTs or mutant constructs were cultured in Dulbecco’s modified Eagle’s medium (DMEM, Invitrogen) containing 5% foetal bovine serum (FBS; ThermoTrace) and […] of hygromycin (Roche) in a humidified incubator (37 °C, 5% CO2). Upon reaching confluence, media was removed, cells were washed with phosphate buffered saline (PBS) and harvested from tissue culture flasks using versene (PBS with 0.2 g EDTA). Cells were then pelleted through centrifugation at 350 × g for three minutes followed by resuspension in DMEM + 5% FBS. Cells were then either plated for an assay or reseeded into a tissue culture flask.

M3 mAChR WT = molecular target: T2, M3 mAChR WT (Homo sapiens, UniProt P20309); experiment: [3H]-NMS radioligand dissociation binding, M3 mAChR WT
T2 construct: expressed in transfected cells
T2 sequence (P20309 whole entry): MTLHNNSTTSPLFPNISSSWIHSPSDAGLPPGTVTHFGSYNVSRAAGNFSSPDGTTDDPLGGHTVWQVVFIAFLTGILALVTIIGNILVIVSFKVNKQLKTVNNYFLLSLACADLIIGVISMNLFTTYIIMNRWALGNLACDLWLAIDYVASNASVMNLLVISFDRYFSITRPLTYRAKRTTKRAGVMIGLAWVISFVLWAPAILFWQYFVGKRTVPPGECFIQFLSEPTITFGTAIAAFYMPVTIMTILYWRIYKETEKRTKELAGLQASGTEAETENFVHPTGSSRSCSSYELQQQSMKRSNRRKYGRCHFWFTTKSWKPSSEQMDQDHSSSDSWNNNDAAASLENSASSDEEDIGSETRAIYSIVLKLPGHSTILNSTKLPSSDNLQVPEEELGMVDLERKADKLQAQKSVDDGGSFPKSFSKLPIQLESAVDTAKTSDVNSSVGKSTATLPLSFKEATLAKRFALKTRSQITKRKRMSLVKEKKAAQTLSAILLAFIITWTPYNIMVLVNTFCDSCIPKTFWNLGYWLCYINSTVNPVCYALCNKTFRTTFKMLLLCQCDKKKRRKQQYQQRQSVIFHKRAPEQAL
Method: as §1

M4 mAChR WT = molecular target: T3, M4 mAChR WT (Homo sapiens, UniProt P08173); experiment: [3H]-NMS radioligand dissociation binding, M4 mAChR WT; settings: for [3H]-NMS binding remaining (0 min = 100), MEAN: M4 mAChR
T3 construct: expressed in transfected cells
T3 sequence (P08173 1-479): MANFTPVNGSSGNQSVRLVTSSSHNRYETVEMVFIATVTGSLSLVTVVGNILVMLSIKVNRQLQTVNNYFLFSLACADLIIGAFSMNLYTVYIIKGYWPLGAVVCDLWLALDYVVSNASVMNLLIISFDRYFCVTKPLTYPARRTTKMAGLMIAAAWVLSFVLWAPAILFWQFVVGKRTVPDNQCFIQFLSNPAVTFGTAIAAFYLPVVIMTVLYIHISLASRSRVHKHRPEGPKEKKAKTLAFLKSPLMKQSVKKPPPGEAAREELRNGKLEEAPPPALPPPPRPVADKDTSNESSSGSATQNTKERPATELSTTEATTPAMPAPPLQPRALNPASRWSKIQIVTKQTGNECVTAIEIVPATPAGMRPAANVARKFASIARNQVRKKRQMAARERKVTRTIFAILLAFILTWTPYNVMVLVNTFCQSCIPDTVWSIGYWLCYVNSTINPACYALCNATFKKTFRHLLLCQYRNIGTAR
Method: as §1

M5 mAChR WT = molecular target: T4, M5 mAChR WT (Homo sapiens, UniProt P08912); experiment: [3H]-NMS radioligand dissociation binding, M5 mAChR WT
T4 construct: expressed in transfected cells
T4 sequence (P08912 1-532): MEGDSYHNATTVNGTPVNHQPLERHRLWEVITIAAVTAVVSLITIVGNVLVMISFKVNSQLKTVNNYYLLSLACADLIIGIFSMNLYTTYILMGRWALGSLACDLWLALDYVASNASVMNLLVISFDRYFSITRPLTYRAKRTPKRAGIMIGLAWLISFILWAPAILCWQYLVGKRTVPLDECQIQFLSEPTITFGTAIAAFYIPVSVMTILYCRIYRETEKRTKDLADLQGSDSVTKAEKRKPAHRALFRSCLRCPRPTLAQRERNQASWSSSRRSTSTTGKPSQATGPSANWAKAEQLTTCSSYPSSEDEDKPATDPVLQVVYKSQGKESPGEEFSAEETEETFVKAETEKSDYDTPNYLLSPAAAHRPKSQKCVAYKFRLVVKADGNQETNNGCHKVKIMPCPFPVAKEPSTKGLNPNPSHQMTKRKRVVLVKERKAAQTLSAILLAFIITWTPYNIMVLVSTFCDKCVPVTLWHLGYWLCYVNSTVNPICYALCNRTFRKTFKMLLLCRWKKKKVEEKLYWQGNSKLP
Method: as §1

For `CCCCCCOc1nsnc1C1=CCCN(C)C1` [xanomeline], the “allosteric effect on [3H]-NMS dissociation (in words)” value (“allosteric effect” for short) (M2 mAChR WT) was “more pronounced”, the IC50 (M3 mAChR WT) was 182 µM and the “allosteric effect” value (M3 mAChR WT; M3 mAChR) was “modest”. For the same compound, the “[3H]-NMS binding remaining (0 min = 100), MEAN” value (from here on “[3H]-NMS binding remaining”) (M3 mAChR WT; M3 mAChR, 10uM Atr + 10 μM Xano, 10 min) was 102.824, the “[3H]-NMS binding remaining” value (M3 mAChR WT; M3 mAChR, 10uM Atr + 10 μM Xano, 15 min) was 94.4472 and the “[3H]-NMS binding remaining” value (M3 mAChR WT; M3 mAChR, 10uM Atr + 10 μM Xano, 30 min) was 84.3079. The “[3H]-NMS binding remaining” value (M3 mAChR WT; M3 mAChR, 10uM Atr + 10 μM Xano, 90 min) was 53.078, the “[3H]-NMS binding remaining” value (M3 mAChR WT; M3 mAChR, 10uM Atr + 10 μM Xano, 120 min) was 40.5004 and the “[3H]-NMS binding remaining” value (M3 mAChR WT; M3 mAChR, 10uM Atr + 10 μM Xano, 210 min) was 20.6349. The “[3H]-NMS binding remaining” value (M3 mAChR WT; M3 mAChR, 10uM Atr + 30 μM Xano, 10 min) was 103.273, the “[3H]-NMS binding remaining” value (M3 mAChR WT; M3 mAChR, 10uM Atr + 30 μM Xano, 15 min) was 95.5713 and the “[3H]-NMS binding remaining” value (M3 mAChR WT; M3 mAChR, 10uM Atr + 30 μM Xano, 30 min) was 87.9383. The “[3H]-NMS binding remaining” value (M3 mAChR WT; M3 mAChR, 10uM Atr + 30 μM Xano, 90 min) was 53.4947, the “[3H]-NMS binding remaining” value (M3 mAChR WT; M3 mAChR, 10uM Atr + 30 μM Xano, 120 min) was 41.606 and the “[3H]-NMS binding remaining” value (M3 mAChR WT; M3 mAChR, 10uM Atr + 30 μM Xano, 210 min) was 24.8398. For the same compound, the “[3H]-NMS binding remaining” value (M3 mAChR WT; M3 mAChR, 10uM Atr + 100uM Xano, 10 min) was 100.762, the “[3H]-NMS binding remaining” value (M3 mAChR WT; M3 mAChR, 10uM Atr + 100uM Xano, 15 min) was 94.0238 and the “[3H]-NMS binding remaining” value (M3 mAChR WT; M3 mAChR, 10uM Atr + 100uM Xano, 30 min) was 90.7523. For the same compound, the “[3H]-NMS binding remaining” value (M3 mAChR WT; M3 mAChR, 10uM Atr + 100uM Xano, 90 min) was 62.8848, the “[3H]-NMS binding remaining” value (M3 mAChR WT; M3 mAChR, 10uM Atr + 100uM Xano, 120 min) was 45.8052 and the “[3H]-NMS binding remaining” value (M3 mAChR WT; M3 mAChR, 10uM Atr + 100uM Xano, 210 min) was 29.7551. For the same compound, the “[3H]-NMS binding remaining” value (M4 mAChR WT; 10uM Atr + 10 μM Xano, 30 min) was 87.1248, the “[3H]-NMS binding remaining” value (M4 mAChR WT; 10uM Atr + 10 μM Xano, 90 min) was 63.7927 and the “[3H]-NMS binding remaining” value (M4 mAChR WT; 10uM Atr + 10 μM Xano, 180 min) was 32.9493. For the same compound, the “[3H]-NMS binding remaining” value (M4 mAChR WT; 10uM Atr + 10 μM Xano, 300 min) was 16.1247, the “[3H]-NMS binding remaining” value (M4 mAChR WT; 10uM Atr + 30 μM Xano, 30 min) was 96.6093 and the “[3H]-NMS binding remaining” value (M4 mAChR WT; 10uM Atr + 30 μM Xano, 90 min) was 68.5782. The “[3H]-NMS binding remaining” value (M4 mAChR WT; 10uM Atr + 30 μM Xano, 180 min) was 42.1853, the “[3H]-NMS binding remaining” value (M4 mAChR WT; 10uM Atr + 30 μM Xano, 300 min) was 23.6351 and the “[3H]-NMS binding remaining” value (M4 mAChR WT; 10uM Atr + 100uM Xano, 30 min) was 97.9496. The “[3H]-NMS binding remaining” value (M4 mAChR WT; 10uM Atr + 100uM Xano, 60 min) was 79.6399, the “[3H]-NMS binding remaining” value (M4 mAChR WT; 10uM Atr + 100uM Xano, 180 min) was 54.7449 and the “[3H]-NMS binding remaining” value (M4 mAChR WT; 10uM Atr + 100uM Xano, 300 min) was 34.2485. For the same compound, the “effect on [3H]-NMS dissociation (in words)” value (M4 mAChR WT; wild-type M4 mAChR, increasing concentrations of xanomeline, saturating concentration of iperoxo) was “progressively slowed”, the “allosteric effect” value (M5 mAChR WT) was “modest” and the “[3H]-NMS binding remaining” value (M5 mAChR WT; 10uM Atr + 10 μM Xano, 10 min) was 90.3151. The “[3H]-NMS binding remaining” value (M5 mAChR WT; 10uM Atr + 10 μM Xano, 15 min) was 91.7238, the “[3H]-NMS binding remaining” value (M5 mAChR WT; 10uM Atr + 10 μM Xano, 30 min) was 85.9775 and the “[3H]-NMS binding remaining” value (M5 mAChR WT; 10uM Atr + 10 μM Xano, 90 min) was 67.8458. For the same compound, the “[3H]-NMS binding remaining” value (M5 mAChR WT; 10uM Atr + 10 μM Xano, 120 min) was 51.752, the “[3H]-NMS binding remaining” value (M5 mAChR WT; 10uM Atr + 10 μM Xano, 210 min) was 35.86 and the “[3H]-NMS binding remaining” value (M5 mAChR WT; 10uM Atr + 30 μM Xano, 10 min) was 92.3387. For the same compound, the “[3H]-NMS binding remaining” value (M5 mAChR WT; 10uM Atr + 30 μM Xano, 15 min) was 85.7238, the “[3H]-NMS binding remaining” value (M5 mAChR WT; 10uM Atr + 30 μM Xano, 30 min) was 100.331 and the “[3H]-NMS binding remaining” value (M5 mAChR WT; 10uM Atr + 30 μM Xano, 90 min) was 61.0136. For the same compound, the “[3H]-NMS binding remaining” value (M5 mAChR WT; 10uM Atr + 30 μM Xano, 120 min) was 51.9105, the “[3H]-NMS binding remaining” value (M5 mAChR WT; 10uM Atr + 30 μM Xano, 210 min) was 31.039 and the “[3H]-NMS binding remaining” value (M5 mAChR WT; 10uM Atr + 100uM Xano, 10 min) was 94.3264. The “[3H]-NMS binding remaining” value (M5 mAChR WT; 10uM Atr + 100uM Xano, 15 min) was 90.317, the “[3H]-NMS binding remaining” value (M5 mAChR WT; 10uM Atr + 100uM Xano, 30 min) was 106.159 and the “[3H]-NMS binding remaining” value (M5 mAChR WT; 10uM Atr + 100uM Xano, 90 min) was 76.4682. The “[3H]-NMS binding remaining” value (M5 mAChR WT; 10uM Atr + 100uM Xano, 120 min) was 67.0445 and the “[3H]-NMS binding remaining” value (M5 mAChR WT; 10uM Atr + 100uM Xano, 210 min) was 42.1563.

From article PMC10482975 (Nature Communications, 2023)
